According to patent publication EP0076430A1, “Compositions having antimicrobial activity” (MEDEA RESEARCH S.r.l., priority 1981, dated 1983):
In brackets after ≈: the same amount, converted by molar mass.

Tests used:
[1] = Toxicity, LD50 by intraperitoneal route; conditions: mouse, in vivo, ip, mice
E. coli = experiment: Bactericide activity at different contact times; format: cell-based; set-up: key to Bactericide action (growth / no growth): + = growth; - = no growth; conditions: 100 p.p.m.
Method: (§1) Different bacterial species isolated from patients are employed.
(§2) Compounds AB5 and AB6 are dissolved in ethanol (ethyl alcohol 95°, C. Erba) and all the subsequent dilutions performed in distilled water. The chlorhexidine is diluted from the commercial product already dissolved in distilled water.
(§3) It is assessed through Dinatech apparatus with "Inoculum 96" head.
(§4) Chemical compounds at established concentra tions are placed in amount of 1 ml in the con tainers, the bacterial inoculum is then added in amount of 0.1 ml (24 hrs culture) and at pre-established times (3,5,10,30,60 and 120 mi nutes), through the head, the mixture compound/ disinfectant agent is transferred in solid medium (agar-heart-brain medium). After incubation at 35°C for 24 hours, the reading is carried out. The tests are repeated in presence of human serum at the concentration of 10%.

Serratia marcescens [2] = experiment: Bactericide activity at different contact times; format: cell-based; set-up: key to Bactericide action (growth / no growth): + = growth; - = no growth; conditions: 100 p.p.m.
Method: as §1, §2, §3, §4

Indole-positive Proteus [3] = experiment: Bactericide activity at different contact times; format: cell-based; set-up: key to Bactericide action (growth / no growth): + = growth; - = no growth; conditions: 100 p.p.m.
Method: as §1, §2, §3, §4

Staph. aureus [4] = experiment: Bactericide activity at different contact times; format: cell-based; set-up: key: + = growth; - = no growth; conditions: 100 p.p.m.
Method: as §1, §2, §3, §4

B. subtilis = experiment: Bactericide activity at different contact times; format: cell-based; set-up: key: + = growth; - = no growth; conditions: 100 p.p.m.
Method: as §1, §2, §3, §4

Salmonella sp. [5] = experiment: Bactericide activity at different contact times; format: cell-based; set-up: key: + = growth; - = no growth; conditions: 100 p.p.m.
Method: as §1, §2, §3, §4

Bacillaceae = experiment: Minimum inhibitory concentration (MIC), broth dilution; format: cell-based; conditions: 24 h; strain 1722
Method: as §1, §2
(§5) The broth dilution is employed to assess MIC values for all strains. Sterile microtiter plates with U bottom with 96 wells are employed. 0.1 Ml of liquid medium (tryptose Roche broth) are put in each well, the plates are kept at -20° and, before use, at room temperature.
(§6) The disinfectant agent is put in the wells of the row 2 at a concentration of 4000 mcg/ml (real 2000 mcg/ml) and then with a 100 µl micro- pipette dilutions are performed from row 2 to row 11.
(§7) The row 1 is the control of the medium and the row 12 is the control for the fertility of the medium itself.
(§8) After having performed the dilutions, 0.01 ml of a 24 hrs bacterial broth culture (previously diluted at 10^-4 for Gram-negative strains and 10-2 for Gram-positive ones) are placed in all wells, from the rows 2 to 12. After the inoculation, the plate is hermetical ly sealed with adhesive transparent band and an hole is done with a needle. The plates are kept at 35° for 24 hours and a macroscopic reading is carried out; in case of non uniform reading, taking place only for chlorhexidine, the cultures from the wells are plated on agar-heart-brain medium (Sclavo) through Dinatech apparatus (head "Inoculum 96") and the reading of the growth is carried out in the following 24 hours.

Serratia marcescens [6] = experiment: as above; format: cell-based; conditions: 24 h, strain 1814
Method: as §1, §2, §5, §6, §7, §8

E.coli = experiment: as above; format: cell-based; conditions: Escherichia coli, 24 h
Method: as §1, §2, §5, §6, §7, §8

Staph. aureus [7] = experiment: as above; format: cell-based; conditions: Staphylococcus aureus, 24 h; strain 2672
Method: as §1, §2, §5, §6, §7, §8

Pseudomonas aeruginosa [8] = experiment: as above; format: cell-based; conditions: 24 h
Method: as §1, §2, §5, §6, §7, §8

Indole-positive Proteus [9] = experiment: as above; format: cell-based; conditions: 24 h
Method: as §1, §2, §5, §6, §7, §8

Enterobacter = experiment: as above; format: cell-based; conditions: 24 h, strain 2643
Method: as §1, §2, §5, §6, §7, §8

Salmonella sp. [10] = experiment: as above; format: cell-based; conditions: 24 h, strain 2482
Method: as §1, §2, §5, §6, §7, §8

Pseudomonas aeruginosa [11] = experiment: Bactericide activity at different contact times; format: cell-based; set-up: key to Bactericide action (growth / no growth) / Bactericide activity (growth / no growth), serum interference test: + = growth; - = no growth
Method: as §1, §2, §3, §4

Structure (SMILES): NC(=NI)c1ccccc1 [AB6]
- LD50 [1]: 85 mg/kg
- Bactericide action (growth / no growth) (E. coli; contact time 3 min): +
- Bactericide action (growth / no growth) (E. coli; contact time 5 min): +
- Bactericide action (growth / no growth) (E. coli; contact time 10 min): -
- Bactericide action (growth / no growth) (E. coli; contact time 30 min): -
- Bactericide action (growth / no growth) (E. coli; contact time 60 min): -
- Bactericide action (growth / no growth) (E. coli; contact time 120 min): -
- longest time in which it is active (Serratia marcescens [2]): 30 min
- Bactericide action (growth / no growth) (Serratia marcescens [2]; contact time 3 min): +
- Bactericide action (growth / no growth) (Serratia marcescens [2]; contact time 5 min): +
- Bactericide action (growth / no growth) (Serratia marcescens [2]; contact time 10 min): +
- Bactericide action (growth / no growth) (Serratia marcescens [2]; contact time 30 min): -
- Bactericide action (growth / no growth) (Serratia marcescens [2]; contact time 60 min): -
- Bactericide action (growth / no growth) (Serratia marcescens [2]; contact time 120 min): -
- contact time for total bactericide activity (Indole-positive Proteus [3]): ≤ 3 min
- Bactericide action (growth / no growth) (Indole-positive Proteus [3]; contact time 3 min): -
- Bactericide action (growth / no growth) (Indole-positive Proteus [3]; contact time 5 min): -
- Bactericide action (growth / no growth) (Indole-positive Proteus [3]; contact time 10 min): -
- Bactericide action (growth / no growth) (Indole-positive Proteus [3]; contact time 30 min): -
- Bactericide action (growth / no growth) (Indole-positive Proteus [3]; contact time 60 min): -
- Bactericide action (growth / no growth) (Indole-positive Proteus [3]; contact time 120 min): -
- Bactericide action (growth / no growth) (Staph. aureus [4]; contact time 3 min): -
- Bactericide action (growth / no growth) (Staph. aureus [4]; contact time 5 min): -
- Bactericide action (growth / no growth) (Staph. aureus [4]; contact time 10 min): -
- Bactericide action (growth / no growth) (Staph. aureus [4]; contact time 30 min): -
- Bactericide action (growth / no growth) (Staph. aureus [4]; contact time 60 min): -
- Bactericide action (growth / no growth) (Staph. aureus [4]; contact time 120 min): -
- Bactericide action (growth / no growth) (B. subtilis; contact time 3 min): -
- Bactericide action (growth / no growth) (B. subtilis; contact time 5 min): -
- Bactericide action (growth / no growth) (B. subtilis; contact time 10 min): -
- Bactericide action (growth / no growth) (B. subtilis; contact time 30 min): -
- Bactericide action (growth / no growth) (B. subtilis; contact time 60 min): -
- Bactericide action (growth / no growth) (B. subtilis; contact time 120 min): -
- Bactericide action (growth / no growth) (Salmonella sp. [5]; contact time 3 min): -
- Bactericide action (growth / no growth) (Salmonella sp. [5]; contact time 5 min): -
- Bactericide action (growth / no growth) (Salmonella sp. [5]; contact time 10 min): -
- Bactericide action (growth / no growth) (Salmonella sp. [5]; contact time 30 min): -
- Bactericide action (growth / no growth) (Salmonella sp. [5]; contact time 60 min): -
- Bactericide action (growth / no growth) (Salmonella sp. [5]; contact time 120 min): -
- MIC (Bacillaceae): 31.2 µg/mL (≈ 0.127 mM)
- MIC (Serratia marcescens [6]): 125 µg/mL (≈ 0.508 mM)
- MIC (E.coli; strain 2094): > 1000 µg/mL
- MIC (E.coli; strain 2096): > 1000 µg/mL
- MIC (E.coli; strain 2117): > 1000 µg/mL
- MIC (E.coli; strain 2456): > 1000 µg/mL
- MIC (E.coli; strain 2568): 2000 µg/mL (≈ 8.13 mM)
- MIC (Staph. aureus [7]): 1000 µg/mL (≈ 4.06 mM)
- MIC (Pseudomonas aeruginosa [8]; strain 2084): > 1000 µg/mL
- MIC (Pseudomonas aeruginosa [8]; strain 2458): > 1000 µg/mL
- MIC (Pseudomonas aeruginosa [8]; strain 2488): 1000 µg/mL (≈ 4.06 mM)
- MIC (Pseudomonas aeruginosa [8]; strain 2508): 1000 µg/mL (≈ 4.06 mM)
- MIC (Pseudomonas aeruginosa [8]; strain 2509): 1000 µg/mL (≈ 4.06 mM)
- MIC (Pseudomonas aeruginosa [8]; strain 2670): 1000 µg/mL (≈ 4.06 mM)
- MIC (Indole-positive Proteus [9]; strain 2075): > 1000 µg/mL
- MIC (Indole-positive Proteus [9]; strain 2083): > 1000 µg/mL
- MIC (Indole-positive Proteus [9]; strain 2105): > 1000 µg/mL
- MIC (Indole-positive Proteus [9]; strain 2410): > 2000 µg/mL
- MIC (Indole-positive Proteus [9]; strain 2447): > 2000 µg/mL
- MIC (Indole-positive Proteus [9]; strain 2674): 1000 µg/mL (≈ 4.06 mM)
- MIC (Enterobacter): 1000 µg/mL (≈ 4.06 mM)
- MIC (Salmonella sp. [10]): > 1000 µg/mL
- contact time for total bactericide activity (Pseudomonas aeruginosa [11]; 100 p.p.m.): ≤ 3 min
- Bactericide action (growth / no growth) (Pseudomonas aeruginosa [11]; contact time 3 min, 100 p.p.m.): -
- Bactericide activity (growth / no growth), serum interference test (Pseudomonas aeruginosa [11]; contact time 3 min, with human serum (10%)): +
- Bactericide activity (growth / no growth), serum interference test (Pseudomonas aeruginosa [11]; contact time 3 min, without serum): -
- Bactericide action (growth / no growth) (Pseudomonas aeruginosa [11]; contact time 5 min, 100 p.p.m.): -
- Bactericide activity (growth / no growth), serum interference test (Pseudomonas aeruginosa [11]; contact time 5 min, with human serum (10%)): +
- Bactericide activity (growth / no growth), serum interference test (Pseudomonas aeruginosa [11]; contact time 5 min, without serum): -
- Bactericide action (growth / no growth) (Pseudomonas aeruginosa [11]; contact time 10 min, 100 p.p.m.): -
- Bactericide activity (growth / no growth), serum interference test (Pseudomonas aeruginosa [11]; contact time 10 min, with human serum (10%)): +
- Bactericide activity (growth / no growth), serum interference test (Pseudomonas aeruginosa [11]; contact time 10 min, without serum): -
- Bactericide action (growth / no growth) (Pseudomonas aeruginosa [11]; contact time 30 min, 100 p.p.m.): -
- Bactericide activity (growth / no growth), serum interference test (Pseudomonas aeruginosa [11]; contact time 30 min, with human serum (10%)): +
- Bactericide activity (growth / no growth), serum interference test (Pseudomonas aeruginosa [11]; contact time 30 min, without serum): -
- Bactericide action (growth / no growth) (Pseudomonas aeruginosa [11]; contact time 60 min, 100 p.p.m.): -
- Bactericide activity (growth / no growth), serum interference test (Pseudomonas aeruginosa [11]; contact time 60 min, with human serum (10%)): -
- Bactericide activity (growth / no growth), serum interference test (Pseudomonas aeruginosa [11]; contact time 60 min, without serum): -
- Bactericide action (growth / no growth) (Pseudomonas aeruginosa [11]; contact time 120 min, 100 p.p.m.): -
- Bactericide activity (growth / no growth), serum interference test (Pseudomonas aeruginosa [11]; contact time 120 min, with human serum (10%)): -
- Bactericide activity (growth / no growth), serum interference test (Pseudomonas aeruginosa [11]; contact time 120 min, without serum): -
